How the values were obtained:
[1] = Mouse weights as a marker of drug toxicity; type: in vivo, A/J mice; conditions: rexinoids in diet; initial week 6, final week 20
From the text: Mouse weights were monitored as a marker of drug toxicity (Supplemental Fig. 3). […] There were no significant differences in the average weights between groups of mice on single drugs.
Control Bexarotene 42011 C/P Bex + C/P 42011 + C/P
Initial weight Final weight
Supplemental Fig 3: Mouse weights. A/J mice were weighed weekly during the study. Values shown represent average mouse weights (n = 14-15/group) before treatment diets (initial weight at week 6) and at the end of the study (final weight at week 20). * p < 0.01 compared to control, # p < 0.01 compared to bexarotene, ! p < 0.05 compared to MSU-42011 (one-way ANOVA followed by Tukey HSD); ** p < 0.05, *** p < 0.01 (two-tailed t test).

SREBP = SREBP mRNA expression assay in HepG2 cells (RT-PCR); type: cell-based, human; conditions: Homo sapiens, HepG2, 8 h, HepG2 cells, 300 nM rexinoids, 8 h, SREBP mRNA by RT-PCR; mean ± SD of 3 experiments; read-out: SREBP activation Fold induction vs. Control
Method: The goals of our structure–activity relationship (SAR) studies were to explore and discover new scaffolds that not only bind to RXR but also are able to independently modulate both iNOS and SREBP activity in accordance with a previously described screening paradigm. To characterize the effect of the novel rexinoids on SREBP elevation in vitro, HepG2 cells were treated with 300 nM rexinoids for 8 h and SREBP mRNA levels were measured by RT-PCR. SREBP expression ranged from no change to a 4.6-fold induction compared to the vehicle control when treated with the novel compounds. […] Analogs MSU- 41402, 41582, 41407, 41566, 41844, 41845, 42011, and 42166 induced an SREPB mRNA fold expression change of 1–1.5 normalized to a vehicle control, while bexarotene induced an mRNA fold expression change of > 2 (Table 1).
HepG2 were plated in 6-well plates (1 × 10^6 cells/well) and, after allowing the cells to attach overnight, were treated with 300 nM rexinoids and/or varying concentrations of T0901317 (TOCRIS # 2373), GSK 2033 (TOCRIS # 5694), HX 531 (TOCRIS # 3912) for 8 h. Total RNA was isolated with TRIzol (Invitrogen, Carlsbad, CA) and 2 µg RNA was used to synthesize cDNA using the SuperScript III reverse transcriptase kit (Invitrogen, Carlsbad, CA). Primers (IDT) for SREBP (F: 5′-GCCGGTTGATAGGCAGCTT-3′; R: 5′-GGTGAGTGGCGGAACCATT-3′) and GAPDH (F: 5′-[…]-3′; R: 5′-[…]-3′), the SYBR Green Supermix (Bio-rad Laboratories, Hercules, CA) and the QuantStudio 7 Flex Real-Time PCR system (95 °C for 20 s followed by 40 cycles of 95 °C for 15 s and 60 °C for 1 min were used to detect mRNA expression. Relative SREBP/GAPDH gene expression was calculated by the delta-delta Ct method. To evaluate protein expression by western blotting, HepG2 cells were plated as above and treated with 300 nM of rexinoids for 24 h. Cells were harvested and lysed in RIPA buffer (1 M Tris–Cl, 5 M NaCl, pH 7.4, 0.5 M EDTA, 25 mM sodium deoxycholate, 1% triton-X, 0.1% SDS, 0.0125% aprotinin) with protease inhibitors (1% PMSF/0.5% apoprotein/0.1%leupeptin). Protein concentration was measured using a BCA assay (Sigma-Aldrich). Proteins (10 µg/well) were separated in 10% SDS-PAGE gels and transferred to nitrocellulose membranes. Membranes were incubated with SREBP (Active Motif; 1:1000) and GAPDH (Santa Cruz Biotechnology; 1:8000) primary antibodies followed by anti-rabbit secondary antibodies conjugated to horseradish peroxidase (Cell Signaling). Signal was detected using the ECL Western Blotting Substrate (GE Healthcare), and protein levels quantified using ImageJ.

A549 lung cancer cells = assay: MTT proliferation assay; type: cell-based, human; conditions: 0–1 μM rexinoids, 72 hr
Method: were treated with 0-1 μM rexinoids for 72 hr. Proliferation was measured using the MTT assay.
MTT Assay. A549 cells were plated in 96-well plates (2,000 cells/well). After overnight attachment, cells were treated with 2 fold dilutions (0-1000 nM rexinoids) for 72 hr. 50 μL 3-(4,5-dimethylthiazol-2-yl)-2,5-diphenyltetrazolium bromide (MTT; Sigma M2128) was added to each well, and cells were incubated at 37 °C for 4 hr. Media was removed and cells were lysed with developing solution (0.04 M HCl in isopropanol). Plates were read at 550 nm.
(also on this page, place not known: 110A549 Cell Proliferation (% DMSO Control) 37°C)

iNOS = iNOS inhibition assay (LPS-induced NO production, Griess reaction); type: cell-based, murine; conditions: Mus musculus; RAW264.7 cells, 0–1000 nM rexinoids, LPS 1 ng/ml 24 h, NO by Griess assay; mean ± SE of 3 experiments; read-out: iNOS suppression IC50
Method: To evaluate the anti-inflammatory effects of the novel rexinoids, we utilized the iNOS suppression assay. Inhibition of iNOS in vitro directly correlates with efficacy in our preclinical model of Kras-driven lung cancer. RAW264.7 macrophage-like cells were treated with 0–1 μM rexinoids and stimulated with 1 ng/mL lipopolysaccharide for 24 h, and then NO was measured in the media.
RAW264.7 cells were plated in 96-well plates (20,000 cells/well). After overnight attachment, cells were treated with twofold serial dilutions (0–1000 nM) of rexinoids. After a 20 min incubation at 37 °C, cells were stimulated with 1 ng/mL LPS for 24 h. NO production was measured in culture medium using the Griess reaction. IC50 values were calculated using GraphPad Prism 8.1.2 software for Windows using a log([nM drug concentration]) vs. response curve fit.

[2] = Lipid levels in plasma (triglyceride and cholesterol kits); type: in vivo, A/J mice; conditions: 100 mg/kg diet for 12 weeks, n = 8, mean ± SE
Method: Triglyceride and cholesterol levels in plasma (n = 8 mice/group) harvested at necropsy were measured using the Triglyceride Quantification Assay Kit (Abcam) or the Cholesterol Quantification Kit (Sigma-Aldrich), respectively, using the recommended protocol supplied by the manufacturer.

- IC50 (iNOS): 143 ± 19 nM
- Cholesterol in plasma [2]: 1.99 ± 0.1ǂ µg/µL
- Triglycerides in plasma [2]: 2.21 ± 0.16ǂ nmol/µL
- Cholesterol in plasma ([2]; listed as bexarotene): 1.99 ± 0.1 µg/µL
- Triglycerides in plasma ([2]; listed as bexarotene): 2.21 ± 0.16 nmol/µL
Compound: C=C(c1ccc(C(=O)O)cc1)c1cc2c(cc1C)C(C)(C)CCC2(C)C [Bexarotene]
- Mouse weights during the study [1]: gained weight as expected
- fold induction at 0.3 µM (SREBP): > 2
- Growth / proliferation of A549 lung cancer cells (A549 lung cancer cells): do not inhibit proliferation

Reference: paper PMC7746742, “The novel rexinoid MSU-42011 is effective for the treatment of preclinical Kras-driven lung cancer” (Scientific Reports, 2020)
